The record followed here is US20230201158A1, “PHARMACEUTICAL COMPOSITION CAPABLE OF INHIBITING REPLICATION OF CORONAVIRUS” (MAHIDOL UNIVERSITY, priority 2020, published 2023).

A short description of data set [1]: Cytotoxicity test by MTT assay. It is filed as cell-based, African green monkey (Cercopithecus aethiops). The note with it: African green monkey (Cercopithecus aethiops), Vero E6 cells (kidney epithelial cells, ATCC #C1008), read-out: 50% cytotoxic concentration (CC50). The method, then:
(§1) According to the present disclosure, Vero E6 cells, African green monkey (Cercopithecus aethiops) kidney epithelial cells (ATCC #C1008), were used for the antiviral screening. The cells were grown in Dulbecco's Modified Eagle Medium (DMEM) (Gibco, USA) with 10% fetal bovine serum (FBS) (Gibco, USA). For Vero cells (African green monkey epithelial cells), these cells were cultured in Minimum Essential Medium (MEM) (Gibco, USA) supplemented with 10% FBS and L-glutamine (Gibco, USA). All cultures were grown at 37° C. in 5% CO2 atmosphere and used in the experiments described in the following examples.
(§2) For Cytotoxicity Test by using MTT assay, the Vero E6 cells were cultured in 96-well plates with 10,000 cells per well and kept in an incubator for 24 hours. Then, the cells were incubated with the two active compounds from the B. rotunda extract, Panduratin A and Pinostrobin, in the incubator for 48 hours. When the given time was completed, 100 uL of […] MTT solvent was added and cells were incubated in the incubator for another 3 hours. MTT solvent was removed and 100 uL DMSO was added. Light absorbance was measured at 570 nm by a microplate reader, and 50% cytotoxicity concentration (CC50) was calculated for each replicate.

The test system of data set [2] is SARS-CoV-2. The experiment in a line: Antiviral activity test, immunofluorescence high-content imaging, post-infection treatment. It is filed as cell-based.
Data set [3] has as its system SARS-CoV-2. The experiment in a line: Anti-SARS-CoV-2 effect at the pre-entry phase, high-content imaging. The note with it: pre-incubated with virus 1 h, adsorption 2 h on Vero E6, washed, 48 h. Type of data set: cell-based.
The test system of data set [4] is SARS-CoV-2. Nature of the data set: Plaque assay of viral output, pre-entry phase. The following applies: 50 μM, FIG. 9. It is filed as cell-based.
The subject of data set [5] is SARS-CoV-2. Type of data set: cell-based.
The test system of data set [6] is Vero E6 cells. The note with it: read-out: CC50, pre-entry phase, pre-entry condition.
The test system of data set [7] is SARS-CoV-2. Nature of the data set: Plaque assay of viral output, post-infection treatment. Type of data set: cell-based. The note with it: FIG. 6. The method, then:
Furthermore, the viral output of SARS-CoV-2 in the present disclosure was reported as the infectious titers that were determined by plaque assay. In brief, Vero cell monolayer was seeded into 6-well plate 24 hours before the infection. The cells were inoculated with a serial dilution of the virus and incubated for viral adsorption for 1 hour at 37° C. Then, the cells were overlaid with 3 mL/well of overlay medium containing MEM supplemented with 5% FBS and 1% agarose. To allow plaque to develop, the culture was incubated at 37° C. in 5% CO2 for 3 days. After that, plaque phenotypes were visualized by staining with 0.33% Neutral Red solution (Sigma, USA) for 5 hrs. Plaque numbers were counted and calculated as plaque-forming unit (PFU) per milliliter (mL).

Data set [8] concerns Vero E6 cells. Nature of the data set: Cytotoxicity test by MTT assay. It is filed as cell-based, African green monkey (Cercopithecus aethiops). The following applies: 48 h, read-out: 50% cytotoxic concentration (CC50). The method, then: as §1, §2

Read-outs that look alike come from different tables or passages of the source. A value given as a limit tells only on which side of the number the result lay.

As to `CCN(CCO)CCCC(C)Nc1ccnc2cc(Cl)ccc12` (centres unmarked) [Hydroxychloroquine, reference compound], in data set [1], the CC50 at 48 h was more than 100 µM. Further, the IC50 in the data set on SARS-CoV-2 [2] (Severe acute respiratory syndrome coronavirus 2, Vero C1008, read-out: 50% inhibition concentration (IC50), given in ug/mL beside the uM value) came out at 1.71 µg/mL.

`COc1cc(O)c(C(=O)[C@@H]2[C@H](CC=C(C)C)C(C)=CC[C@H]2c2ccccc2)c(O)c1` [Panduratin A]: the IC50 with SARS-CoV-2 [3] amounted to 5.3 µM; in the data set with SARS-CoV-2 [2] (Vero E6 cells infected 2 h, then treated 48 h (post-infection), read-out: 50% inhibition concentration (IC50)) it was 0.81 µM. Also, the “Suppression of the infectious virion production” value in the data set with SARS-CoV-2 [4] is “absolutely suppressed”. Moreover, in the data set on SARS-CoV-2 [5] (72 h, 5 μM, vehicle 4.5 log PFU/mL), the “Virus titer (reduced in)” value was found to be 3 log PFU/mL. Also, the “Reduction of virus titers (result in words)” value in the data set with SARS-CoV-2 [5] (primary human alveolar cells, FIG. 10) is given as “reduced virus titers in a dose-dependent manner”. The CC50 in the data set with Vero E6 cells [6] was found to be 43.5 µM; with Vero E6 cells [8], 14.7 µM. In addition, the “Inhibition of coronavirus replication in plaque assay (result in words)” value in the data set on SARS-CoV-2 [7] was “significantly lower than that of Hydroxychloroquine”.

Take `COc1cc(O)c2c(c1)O[C@H](c1ccccc1)CC2=O` [Pinostrobin]: in the data set on SARS-CoV-2 [5] (72 h, 25 μM, vehicle 4.5 log PFU/mL), the “Virus titer (reduced in)” value worked out at 3 log PFU/mL. In addition, the Virus titer with SARS-CoV-2 [5] (72 h, 50 μM, vehicle 4.5 log PFU/mL) is listed as 2.0 log PFU/mL. Further, the CC50 at 48 h in data set [1] was more than 100 µM. In the data set with SARS-CoV-2 [2] (Severe acute respiratory syndrome coronavirus 2, Vero C1008, read-out: 50% inhibition concentration (IC50)), the IC50 was 0.44 µM.
